Experiments:
[1] = system: fescue; experiment: Field study on fescue suppression; assay type: in vivo; conditions: one week after spraying; 0.2% ammonium pelargonate alone; 15 gpa
Excerpt: A field study was made on fescue suppression (fescue thatch, 9-10 in. height, blade length 10-16 in.) using a 0.2% by weight solution of ammonium pelargonate alone, glyphosate ammonium salt alone (ROUNDUP DF®) at application rates of both 0.21 lb. active ingredient/acre (ai/A) and 0.42 lb. ai/A and a combination of 0.2% ammonium pelargonate with the same rates of ROUNDUP DF. The spray rate was 15 gal./acre (gpa) in all cases. One week after spraying, the following results were obtained: […]

[2] = system: weeds and grass; experiment: Time to visual phytotoxic effect after application to weeds (general statement); assay type: in vivo; conditions: without ammonium pelargonate; 'or longer'
Excerpt: As an example, weed and grass necrosis may approach 100% within 24 hrs. with glyphosate in combination with ammonium pelargonate, compared to 3-4 days or longer without the ammonium pelargonate.
Unwanted vegetation may be killed by applying to the locus of the vegetation the herbicidal composition of the invention. The herbicidal composition of the invention may be contacted with the unwanted vegetation by spraying or otherwise distributing the composition onto the foliage in accordance with the manufacturers' directions of the post-emergent herbicide [to which has been added the compound of formula (I)]. […] Most importantly, the invention dramatically reduces the kill time. Leaves of vegetation sprayed with herbicidal compositions of the invention usually start to shrivel or turn brown within hours of a single application. Necrosis is evident, usually in 24 hours. Typically unwanted vegetation is dead in less than 24 hours compared to 3 to 4 days when the post-emergent is solely used. Since use of the compound of formula (I) decreases the amount of post-emergent herbicide required, the invention dramatically reduces costs.

SMILES | necrosis [1] [%] | time until weed and grass necrosis may approach 100% [2] [days]
CCCCCCCCC(=O)O.N [Ammonium Pelargonate, ammonium pelargonate] | 0 | 
O=C(O)CNCP(=O)(O)O [glyphosate] |  | 3 to 4

From patent US6503869B1, “Enhanced post-emergent herbicidal compositions containing ammonium salts and methods of using the same” (Falcon Lab LLC, priority 2000, dated 2003)
